{"source": "paper PMC8311653", "about": "“Design, Synthesis, In Vitro and In Vivo Characterization of Selective NKCC1 Inhibitors for the Treatment of Core Symptoms in Down Syndrome” (Journal of Medicinal Chemistry, 2021)", "origin": "cited, not measured here", "target": "T1, NKCC2 (Homo sapiens, UniProt Q13621)", "T1 construct": "host or cells: HEK293", "T1 sequence (Q13621 1-1099)": "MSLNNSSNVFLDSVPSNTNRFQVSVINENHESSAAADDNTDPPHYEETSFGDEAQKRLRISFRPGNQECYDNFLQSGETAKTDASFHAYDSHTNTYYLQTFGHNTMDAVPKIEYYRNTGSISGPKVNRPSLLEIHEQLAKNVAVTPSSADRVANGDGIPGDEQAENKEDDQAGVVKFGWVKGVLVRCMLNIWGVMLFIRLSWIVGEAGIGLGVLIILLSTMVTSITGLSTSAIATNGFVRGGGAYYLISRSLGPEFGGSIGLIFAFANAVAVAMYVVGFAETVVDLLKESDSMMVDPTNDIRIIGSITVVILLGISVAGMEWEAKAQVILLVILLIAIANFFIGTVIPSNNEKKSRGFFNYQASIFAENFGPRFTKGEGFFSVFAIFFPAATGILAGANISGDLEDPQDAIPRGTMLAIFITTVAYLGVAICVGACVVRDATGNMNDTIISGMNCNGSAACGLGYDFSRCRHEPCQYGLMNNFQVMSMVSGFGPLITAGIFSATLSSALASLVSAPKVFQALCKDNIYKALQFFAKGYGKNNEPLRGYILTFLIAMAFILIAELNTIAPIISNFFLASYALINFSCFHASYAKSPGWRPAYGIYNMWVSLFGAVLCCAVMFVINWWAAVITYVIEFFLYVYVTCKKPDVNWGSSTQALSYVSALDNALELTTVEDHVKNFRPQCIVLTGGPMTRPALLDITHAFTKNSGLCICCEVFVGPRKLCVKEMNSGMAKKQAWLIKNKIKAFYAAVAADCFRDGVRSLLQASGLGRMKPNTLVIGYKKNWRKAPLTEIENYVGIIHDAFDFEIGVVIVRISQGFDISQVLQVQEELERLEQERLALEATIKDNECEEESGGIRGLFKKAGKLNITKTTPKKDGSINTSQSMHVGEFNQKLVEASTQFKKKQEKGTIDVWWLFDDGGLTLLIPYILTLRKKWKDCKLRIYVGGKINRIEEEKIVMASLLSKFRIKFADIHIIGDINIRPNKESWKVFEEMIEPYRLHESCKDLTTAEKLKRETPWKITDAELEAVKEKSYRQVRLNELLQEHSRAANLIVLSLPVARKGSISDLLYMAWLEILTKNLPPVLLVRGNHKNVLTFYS", "parameters": "method as in PMID 32818158", "details": "10 μM; cited from earlier work", "data": [{"smiles": "CN(C)S(=O)(=O)c1cc(C(=O)O)ccc1NCCCCCCCC(F)(F)F", "note": "[Compound 1, 3-(-N,N-Dimethylsulfamoyl)-4-(8,8,8-trifluorooctylamino)benzoic Acid]", "values": [{"measurement": "inhibition of NKCC2 in the Cl- influx assay", "result": "did not show any significant inhibition"}]}]}
